Results: paper PMC6444592, “Citrullination of HP1γ chromodomain affects association with chromatin” (Epigenetics & Chromatin, 2019)

How the values were obtained:
Assay type in all cases: cell-based, mouse
[1] = test system: mESCs; assay: live-cell single-particle tracking, 13.5 ms, jump distance analysis
Description: (§1) Parental E14 mouse embryonic stem cell (mESC) line was profiled by transcriptome analysis, qPCR and potency assays and was routinely tested for mycoplasma contamination and tested negative. Cells were cultured in DMEM (Gibco) supplemented with 15% standard FCS (Gibco), 0.1 mM non-essential amino acids (Gibco), 1% penicillin/streptomycin, 2 mM L-glutamine (Gibco), 1 mM sodium pyruvate (Gibco), 0.1 mM β-mercaptoethanol (Life Technologies) and 10^6 units/l mLIF (ESGRO, Millipore). E14 cells were stored in incubators at 37 °C in 7.5% CO2 (100% humidity) and maintained in 0.1% gelatin coated 10-cm culture dishes with 1:6 passaging every 2 days. Media was changed on a daily basis. E14 ESCs expressing mouse mEos3.2–HaloTag-HP1 fusion proteins were generated by transfecting appropriate pSB7 plasmids into E14 cells using Lipofectamine 2000 transfection reagent (Invitrogen), followed by selection in 600 µg/ml geneticin (Life Technologies). After 2 weeks of geneticin selection, cells were sorted using a Sony SH800S cell sorter for the expression of mEos3.2. Differentiation of ESCs was induced by LIF withdrawal. ESCs cultured in complete ES cell media (+ LIF) were trypsinised and washed twice in 1x PBS to remove residual LIF, seeded into ES cell media without LIF and incubated for 24, 48 or 72 h.
An IX73 Olympus inverted microscope was used with circularly polarised laser beams aligned and focused at the back aperture of an Olympus 1.40 NA 100 × oil objective (Universal Plan Super Apochromat, 100 × , NA 1.40, UPLSAPO100XO/1.4). Continuous wavelength diode laser light sources used include a 561-nm (Cobolt, Jive 200, 200 mW) and a 405-nm laser (Stradus, Toptica, 405–100, 100 mW). Oblique angle illumination was achieved by aligning the laser off axis such that the emergent beam at the sample interface was near-collimated and incident at an angle slightly less than the critical angle θc ~ 67° for a glass/water interface. This generated a ~ 50 μm diameter excitation footprint. The power of the collimated beams at the back aperture of the microscope was 10 kW/cm^2 and 10–100 W/cm^2 for the 561-nm and 405-nm laser beams, respectively. The lasers were reflected by dichroic mirrors (Semrock, Di01-R405/488/561/635). The fluorescence emission was collected through the same objective and then further filtered using a combination of long-pass and band-pass filters (BLP01-561R and FF01-587/35 for 561 nm excitation). The emission signal was projected onto an EMCCD (Photometrics, Evolve 512 Delta) with an electron multiplication gain of 250 ADU/photon operating in a frame transfer mode.
mESCs expressing mEos3.2–HaloTag-tagged HP1γ were passaged 2 days before imaging onto 35-mm glass bottom dishes No 1.0 (MatTek Corporation P35G-1.0-14-C Case) in phenol red-free serum and LIF conditions, if not stated otherwise. Just before single-particle tracking (SPT) imaging experiments, cells were labelled with 0.5 nM HaloTag–JF549 ligand for at least 15 min, followed by two washes in PBS and a 30-min incubation at 37 °C in media, before imaging the cells in fresh phenol red-free serum and LIF conditions. Cells were under-labelled to prevent overlap of fluorophores during SPT. Using 561 nm excitation, fluorescence images were collected as movies of 10,000 frames at 13.5 ms or 1000 to 5000 frames at 500 ms exposure. For live-cell tracking, data were collected for three biological replicates on separate dishes and the average values compared.
Live-cell 13.5-ms single-molecule traces were analysed using software that detects single-molecule trajectories from SPT movies. Briefly, the code detected puncta positions in each image frame using a brightness-weighted centroid after applying a band-pass filter to remove low-frequency background and high-frequency noise from the image data. To track the HP1 single molecules, only fluorescent puncta smaller than 3 pixels and with a signal to noise greater than 8 were analysed. […]

[2] = test system: mESCs; assay: HP1γ foci formation, fluorescence imaging of mEos3.2; conditions: +/− LIF 72 h
Description: as §1, with “After 2 weeks of geneticin selection, cells were sorted using a Sony SH800S cell sorter for the expression of mEos3.2. Differentiation of ESCs was induced by LIF withdrawal. ESCs cultured in complete ES cell media (+ LIF) were trypsinised and washed twice in 1x PBS to remove residual LIF, seeded into ES cell media without LIF and incubated for 24, 48 or 72 h.” left out
An IX73 Olympus inverted microscope was used with circularly polarised laser beams aligned and focused at the back aperture of an Olympus 1.40 NA 100 × oil objective (Universal Plan Super Apochromat, 100 × , NA 1.40, UPLSAPO100XO/1.4). […] The fluorescence emission was collected through the same objective and then further filtered using a combination of long-pass and band-pass filters (BLP01-561R and FF01-587/35 for 561 nm excitation). […]

[3] = test system: mESCs; assay: pluripotency marker mRNA (RT-PCR) and morphology of mESCs; conditions: mESCs stably expressing fusion protein; +/− LIF; n = 2
Description: as §1, with “Differentiation of ESCs was induced by LIF withdrawal. ESCs cultured in complete ES cell media (+ LIF) were trypsinised and washed twice in 1x PBS to remove residual LIF, seeded into ES cell media without LIF and incubated for 24, 48 or 72 h.” left out
Cells were lysed using QIAzol® lysis reagent (Qiagen) and total RNA was isolated using RNeasy® Mini Kit with in column DNase treatment (Qiagen). […] Relative expression was calculated with the 2^−ΔΔCt method, normalising to the housekeeping gene β-actin. Data were analysed using GraphPad Prism 7 software. […]

## HP1γR38/9A: HP1γ with alanine substitutions at amino acids 38 and 39 to mimic citrullination
[1]; +LIF, 13.5 ms, replicate i
  Diffusion coefficient, Bound: 0.090 µm2s-1
  Diffusion coefficient, Diffusing: 0.746 µm2s-1
  Percentage, Bound: 38.9%
  Percentage, Diffusing: 61.1%
[1]; +LIF, 13.5 ms, replicate ii
  Diffusion coefficient, Bound: 0.100 µm2s-1
  Diffusion coefficient, Diffusing: 0.761 µm2s-1
  Percentage, Bound: 29.6%
  Percentage, Diffusing: 70.4%
[1]; +LIF, 13.5 ms, replicate iii
  Diffusion coefficient, Bound: 0.100 µm2s-1
  Diffusion coefficient, Diffusing: 0.706 µm2s-1
  Percentage, Bound: 34.1%
  Percentage, Diffusing: 65.9%
[1]; +LIF, 13.5 ms, replicate iv
  Diffusion coefficient, Bound: 0.100 µm2s-1
  Diffusion coefficient, Diffusing: 1.012 µm2s-1
  Percentage, Bound: 21.5%
  Percentage, Diffusing: 78.5%
[1]; +LIF, 13.5 ms, replicate v
  Diffusion coefficient, Bound: 0.100 µm2s-1
  Diffusion coefficient, Diffusing: 1.094 µm2s-1
  Percentage, Bound: 13.1%
  Percentage, Diffusing: 86.9%
[1]; +LIF, 13.5 ms, replicate vi
  Diffusion coefficient, Bound: 0.100 µm2s-1
  Diffusion coefficient, Diffusing: 1.108 µm2s-1
  Percentage, Bound: 37.1%
  Percentage, Diffusing: 62.9%
[1]; WT and R38/9A, +/− LIF, p values > 0.967
  percentages of molecules in diffusing and bound fractions, significance across conditions: ns.
[1]; WT and R38/9A, +/− LIF, p values > 0.999
  diffusion coefficients, significance across conditions: no significant differences across conditions
[1]; −LIF 72 h versus +LIF, 13.5 ms
  diffusion rate, effect of LIF withdrawal: no significant effect
[1]; −LIF, 13.5 ms, replicate i
  Diffusion coefficient, Bound: 0.075 µm2s-1
  Diffusion coefficient, Diffusing: 0.609 µm2s-1
  Percentage, Bound: 44.5%
  Percentage, Diffusing: 55.5%
[1]; −LIF, 13.5 ms, replicate ii
  Diffusion coefficient, Bound: 0.100 µm2s-1
  Diffusion coefficient, Diffusing: 0.697 µm2s-1
  Percentage, Bound: 37.2%
  Percentage, Diffusing: 62.8%
[1]; −LIF, 13.5 ms, replicate iii
  Diffusion coefficient, Bound: 0.100 µm2s-1
  Diffusion coefficient, Diffusing: 0.913 µm2s-1
  Percentage, Bound: 32.9%
  Percentage, Diffusing: 67.1%
[1]; −LIF, 13.5 ms, replicate iv
  Diffusion coefficient, Bound: 0.100 µm2s-1
  Diffusion coefficient, Diffusing: 0.659 µm2s-1
  Percentage, Bound: 34.6%
  Percentage, Diffusing: 65.4%
[1]; −LIF, 13.5 ms, replicate ix
  Diffusion coefficient, Bound: 0.100 µm2s-1
  Diffusion coefficient, Diffusing: 1.031 µm2s-1
  Percentage, Bound: 28.9%
  Percentage, Diffusing: 71.1%
[1]; −LIF, 13.5 ms, replicate v
  Diffusion coefficient, Bound: 0.100 µm2s-1
  Diffusion coefficient, Diffusing: 0.710 µm2s-1
  Percentage, Bound: 39.6%
  Percentage, Diffusing: 60.4%
[1]; −LIF, 13.5 ms, replicate vi
  Diffusion coefficient, Bound: 0.100 µm2s-1
  Diffusion coefficient, Diffusing: 0.582 µm2s-1
  Percentage, Bound: 38.6%
  Percentage, Diffusing: 61.4%
[1]; −LIF, 13.5 ms, replicate vii
  Diffusion coefficient, Bound: 0.100 µm2s-1
  Diffusion coefficient, Diffusing: 0.774 µm2s-1
  Percentage, Bound: 36.9%
  Percentage, Diffusing: 63.1%
[1]; −LIF, 13.5 ms, replicate viii
  Diffusion coefficient, Bound: 0.100 µm2s-1
  Diffusion coefficient, Diffusing: 0.812 µm2s-1
  Percentage, Bound: 33.6%
  Percentage, Diffusing: 66.4%
[2]
  foci formation, WT- versus R38/9A-expressing cells: no apparent difference
[3]
  effect of exogenous expression on pluripotency marker mRNA and morphology: no discernible effect on mESC differentiation
